{"source": "PubChem BioAssay AID671", "about": "(University of Pittsburgh Molecular Library Screening Center, 2007)"}
{"target": "M-phase inducer phosphatase 2 (Homo sapiens) (UniProt P30305)", "sequence (P30305 whole entry, looked up, the tested form may be a part)": "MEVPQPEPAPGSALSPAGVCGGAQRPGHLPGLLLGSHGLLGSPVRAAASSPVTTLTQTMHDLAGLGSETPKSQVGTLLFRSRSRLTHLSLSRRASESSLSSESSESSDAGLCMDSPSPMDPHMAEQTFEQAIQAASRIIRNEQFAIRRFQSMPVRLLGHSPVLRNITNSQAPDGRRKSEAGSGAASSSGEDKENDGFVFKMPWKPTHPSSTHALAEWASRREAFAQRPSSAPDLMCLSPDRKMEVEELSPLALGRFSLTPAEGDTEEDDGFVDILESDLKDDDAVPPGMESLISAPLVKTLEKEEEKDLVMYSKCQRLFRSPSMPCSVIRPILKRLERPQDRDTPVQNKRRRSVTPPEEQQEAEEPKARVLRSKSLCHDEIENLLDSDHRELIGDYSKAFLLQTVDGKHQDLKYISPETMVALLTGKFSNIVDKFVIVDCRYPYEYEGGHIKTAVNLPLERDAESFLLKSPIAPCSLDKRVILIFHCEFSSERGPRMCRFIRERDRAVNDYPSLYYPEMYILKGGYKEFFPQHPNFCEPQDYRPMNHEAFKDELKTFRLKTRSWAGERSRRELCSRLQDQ", "experiment": "inhibition of Cdc25B catalytic domain activity – biochemical, with glutathione, probe assessment, dose response (AID 671)", "conditions": "recombinant Cdc25B catalytic domain", "units": {"IC50": "µM"}}
{"compound": "Cc1ccc2c(c1)C1C=CCC1C(C(=O)O)N2", "note": "(stereo not drawn)", "IC50": 5.89}
{"target": "M-phase inducer phosphatase 2 (Homo sapiens) (UniProt P30305)", "experiment": "inhibition of Cdc25B catalytic domain activity – biochemical, with glutathione, probe assessment, dose response (AID 671)", "conditions": "recombinant Cdc25B catalytic domain, measured here: inhibition at top dose 50 uM, at 50 µM, stronger effect = higher value", "units": {"inhibition": "%"}}
{"compound": "Nc1cccc2cnccc12", "inhibition": -3.3}
{"compound": "N#Cc1c(N)sc(=S)c2c1CCN(Cc1ccccc1)C2", "inhibition": 51}
{"compound": "O=C(NC1(O)C(=O)c2ccccc2C1=O)c1ccccc1", "inhibition": 36}
{"compound": "O=C(OC1CCCCC1)c1ccc2c(c1)C1C=CCC1C(C(=O)O)N2", "note": "(stereo not drawn)", "inhibition": 90.2}
{"compound": "CCn1nc(-c2cccs2)nc2c(=O)n(C)c(=O)nc1-2", "inhibition": 41.5}
{"compound": "CCn1nc(-c2ccccc2)nc2c(=O)n(C)c(=O)nc1-2", "inhibition": 34.5}
{"compound": "Cn1ncnc2c(=O)n(C)c(=O)nc1-2", "inhibition": 63}
{"compound": "N#Cc1c(N2CCCC2)nc(N)c2c(N)nc(N3CCCC3)cc12", "inhibition": -13.3}
{"compound": "O=C1C=Cc2ccccc2C1=O", "inhibition": 78.6}
{"compound": "c1ccc(CSc2nnc(-c3ccco3)c(-c3ccco3)n2)cc1", "inhibition": 84.7}
{"compound": "Cc1ccc2c(c1)C1C=CCC1C(C(=O)O)N2", "note": "(stereo not drawn)", "inhibition": 88.9}
{"compound": "COc1cccc2c1NC(C(=O)O)C1CC=CC21", "note": "(stereo not drawn)", "inhibition": 85}
{"compound": "O=c1[nH]c(Nc2ccccc2)cc2ccccc12", "inhibition": 48.6}
{"compound": "O=C(Nc1ccc2nc(-c3ccco3)c(-c3ccco3)nc2c1)N1CCCCCC1", "inhibition": 85.5}
{"compound": "COc1ccc2noc3c2c1C(=O)c1ccccc1-3", "inhibition": 16.7}
{"compound": "O=C(O)C1Nc2c(O)cccc2C2C=CCC12", "note": "(stereo not drawn)", "inhibition": 94.8}
{"compound": "COc1cccc2c(C)c(C(=O)O)[nH]c12", "inhibition": 85.7}
{"compound": "O=C1Cc2ccccc2C(=O)N1CCc1ccccc1", "inhibition": 7.6}
{"compound": "CCOc1ccc2noc3c2c1C(=O)c1ccccc1-3", "inhibition": 30.7}
{"compound": "Cc1ccccc1Nc1cc2ccccc2c(=O)[nH]1", "inhibition": 40.3}
{"compound": "CC(=O)Nc1cc(OC(C)=O)c2nonc2c1OC(C)=O", "inhibition": 28.7}
{"compound": "Cc1c(N=c2c(=O)c3ccccc3c2=O)c(=O)n(-c2ccccc2)n1C", "inhibition": 30.4}
{"compound": "[O-]/[N+](=C\\c1ccncc1)c1ccccc1", "inhibition": 4.4}
{"compound": "CCOC(=O)C(C(=O)OCC)c1cc(Br)c2noc3c2c1C(=O)c1ccccc1-3", "inhibition": 36.5}
{"compound": "COc1ccc(Br)cc1/C=c1\\sc2nc(-c3ccco3)nn2c1=O", "inhibition": 91.7}
{"compound": "Cc1ccc2c(c1C)NC(C(=O)O)C1CC=CC21", "note": "(stereo not drawn)", "inhibition": 89.9}
{"compound": "[O-]/[N+](=C\\c1ccc(OC(F)F)cc1)c1ccccc1", "inhibition": 8.3}
